# Results: US20210177803A1, “NEW PHARMACEUTICAL USE FOR THE TREATMENT OF HEART FAILURE” (Novartis AG, priority 2018, published 2021)
# Like-named read-outs stand apart in the source and are kept apart here.
# What was measured:
# NT-proBNP = system: NT-proBNP
# Method: The study rational and design is described in by Velazquez E J, et al. .in Am.
# The starting dose and all subsequent doses were selected to optimize the highest tolerated dose based on a systolic blood pressure (SBP) algorithm.
# Inclusion Criteria: • Patients ≥18 y of age with the capacity to provide written informed consent. • Currently hospitalized for a primary diagnosis of HF, including symptoms and signs of fluid overload. • Eligible patients will be randomized no earlier than 24 hours and up to ten days after presentation while still hospitalized as long as meet the following definition of stable status: • SBP≥100 mm Hg for the preceding 6 hours prior to randomization; no symptomatic hypotension • No increase (intensification) in i.v. diuretic dose within last 6 hours prior to randomization • No i.v. inotropic drugs for 24 hours prior to randomization • No i.v. vasodilators including nitrates within last 6 hours prior to randomization • Left ventricular EF 40% within the past 6 m (including current hospitalization) using echocardiography, multi gated acquisition scan (MUGA), CT scanning, MRI or ventricular angiography, provided no subsequent study documented an EF of >40% • Elevated NT-proBNP≥1600 pg/mL OR BNP≥400 pg/mL during current hospitalization.
# neprilysin = neprilysin (Homo sapiens, UniProt P08473); details: 200 mg LCZ696 b.i.d.; cited from earlier work
# Sequence of neprilysin (P08473 whole entry): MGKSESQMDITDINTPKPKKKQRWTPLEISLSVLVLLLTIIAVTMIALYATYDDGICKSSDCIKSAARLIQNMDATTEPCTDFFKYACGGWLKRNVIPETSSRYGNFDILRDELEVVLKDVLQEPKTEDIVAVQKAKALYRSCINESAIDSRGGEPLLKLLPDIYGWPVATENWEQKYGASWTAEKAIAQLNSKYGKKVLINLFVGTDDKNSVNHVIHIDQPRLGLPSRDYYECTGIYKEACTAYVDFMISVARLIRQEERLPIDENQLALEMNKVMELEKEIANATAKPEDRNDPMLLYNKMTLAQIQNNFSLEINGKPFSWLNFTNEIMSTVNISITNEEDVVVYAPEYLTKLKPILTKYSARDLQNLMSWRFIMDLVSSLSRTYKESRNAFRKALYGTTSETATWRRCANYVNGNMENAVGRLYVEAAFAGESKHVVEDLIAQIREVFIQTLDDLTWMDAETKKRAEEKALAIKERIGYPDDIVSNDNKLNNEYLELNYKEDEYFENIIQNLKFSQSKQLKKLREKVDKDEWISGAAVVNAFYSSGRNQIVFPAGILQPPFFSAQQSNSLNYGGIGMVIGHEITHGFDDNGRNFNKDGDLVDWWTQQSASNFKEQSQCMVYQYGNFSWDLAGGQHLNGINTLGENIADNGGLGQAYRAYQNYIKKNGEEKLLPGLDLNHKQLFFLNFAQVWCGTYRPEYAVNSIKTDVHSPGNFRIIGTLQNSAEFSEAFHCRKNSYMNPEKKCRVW
# [1] = system: patients with HFrEF following hemodynamic stabilization after an episode of ADHF; details: for Patients with ≥1 AE: full analysis set;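 for all read-outs here: adverse events recorded in patients during the 10-week treatment phase following randomization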
# [2] = system: high-sensitivity cardiac troponin (hsTnT); details: compared with enalapril, 4 weeks
# Method: (§1) Circulating high-sensitivity cardiac troponin (hsTn) and soluble ST2 (sST2) reflect myocardial stress in patients with heart failure (HF). Production of cyclic guanosine 3′5′ monophosphate (cGMP) in response to activation of natriuretic peptide receptors reduces cardiac afterload and preload.
# (§2) Ratios of geometric means (timepoint/baseline) were determined and compared as a ratio for sacubitril/valsartan vs. enalapril.
# urinary cGMP = details: compared with enalapril, 1 week
# Method: as §1, §2
# [3] = not naive to ACEI/ARB (N = 665)
# [4] = post-discharge, N = 496, 10-week treatment epoch
# [5] = post-discharge, N = 496, 10-week treatment period
# [6] = pre-discharge, N = 497, 10-week treatment epoch
# [7] = pre-discharge, N = 497, 10-week treatment period
# [8] = previous diagnosis of HFrEF (N = 705)
structure (smiles),measurement,setting,value
"CCCCC(=O)N(Cc1ccc(-c2ccccc2-c2nn[n-]n2)cc1)[C@H](C(=O)[O-])C(C)C.CCOC(=O)[C@H](C)C[C@@H](Cc1ccc(-c2ccccc2)cc1)NC(=O)CCC(=O)[O-].[Na+].[Na+].[Na+] [LCZ696, trisodium [3((1S,3R)-1-biphenyl-4-ylmethyl-3-ethoxycarbonyl-1-butylcarbamoyl) propionate-(S)-3′-methyl-2′-(pentanoyl{2″-(tetrazol-5-ylate)biphenyl-4′-ylmethyl}amino)butyrate]hemipentahydrate]",Ratio of time-averaged change in NT-proBNP from baseline to the geometric mean of weeks 4 and 8,NT-proBNP; LCZ696 vs. Enalapril,0.71
same,Ratio of change in NT-proBNP from baseline,"NT-proBNP; LCZ696 vs. enalapril, week 1",0.76
same,Share of maximal neprilysin inhibition delivered,neprilysin,approximately 90%
same,Deaths attributed to the study treatment by the investigator,[1]; both arms,None
same,"SAE hyperkalemia, patients",[1]; both treatment groups,< 1%
same,"SAE hypotension, patients",[1]; both treatment groups,< 1%
same,AE of interest: Blood creatinine increased,[1]; de novo HFrEF (N = 286),3 (1.0) n (%)
same,AE of interest: Cardiac failure,[1]; de novo HFrEF (N = 286),13 (4.5) n (%)
same,AE of interest: Hyperkalemia,[1]; de novo HFrEF (N = 286),24 (8.4) n (%)
same,AE of interest: Hypotension,[1]; de novo HFrEF (N = 286),26 (9.1) n (%)
same,AE of interest: Renal failure,[1]; de novo HFrEF (N = 286),3 (1.0) n (%)
same,AE of interest: Renal impairment,[1]; de novo HFrEF (N = 286),8 (2.8) n (%)
same,At least one AE,[1]; de novo HFrEF (N = 286),178 (62.2) n (%)
same,At least one serious AE,[1]; de novo HFrEF (N = 286),33 (11.5) n (%)
same,Death,[1]; de novo HFrEF (N = 286),1 (0.3) n (%)
same,Treatment interruption due to AE,[1]; de novo HFrEF (N = 286),22 (7.7) n (%)
same,Rate of permanent discontinuation of study drug due to AEs,"[1]; initiated post-discharge (text, secondary endpoint)",3.5%
same,Rate of permanent discontinuation of study drug due to AEs,"[1]; initiated pre-discharge (text, secondary endpoint)",4.5%
same,AE of interest: Blood creatinine increased,[1]; naive to ACEI/ARB (N = 326),6 (1.8) n (%)
same,AE of interest: Cardiac failure,[1]; naive to ACEI/ARB (N = 326),17 (5.2) n (%)
same,AE of interest: Hyperkalemia,[1]; naive to ACEI/ARB (N = 326),20 (7.1) n (%)
same,AE of interest: Hypotension,[1]; naive to ACEI/ARB (N = 326),29 (8.9) n (%)
same,AE of interest: Renal failure,[1]; naive to ACEI/ARB (N = 326),6 (1.8) n (%)
same,AE of interest: Renal impairment,[1]; naive to ACEI/ARB (N = 326),8 (2.5) n (%)
same,At least one AE,[1]; naive to ACEI/ARB (N = 326),210 (64.4) n (%)
same,At least one serious AE,[1]; naive to ACEI/ARB (N = 326),47 (14.4) n (%)
same,Treatment interruption due to AE,[1]; naive to ACEI/ARB (N = 326),32 (9.8) n (%)
same,AE of interest: Blood creatinine increased,[1]; [3],23 (3.5) n (%)
same,AE of interest: Cardiac failure,[1]; [3],54 (8.1) n (%)
same,AE of interest: Hyperkalemia,[1]; [3],86 (12.9) n (%)
same,AE of interest: Hypotension,[1]; [3],79 (11.9) n (%)
same,AE of interest: Renal failure,[1]; [3],13 (2.0) n (%)
same,AE of interest: Renal impairment,[1]; [3],32 (4.8) n (%)
same,At least one AE,[1]; [3],446 (67.1) n (%)
same,At least one serious AE,[1]; [3],116 (17.4) n (%)
same,Treatment interruption due to AE,[1]; [3],77 (11.8) n (%)
same,"Mortality, patients who died",[1]; post-discharge arm,2.0%
same,"AE cardiac failure, patients",[1]; post-discharge group,8.5%
same,"AE dizziness, patients",[1]; post-discharge group,4.2%
same,"AE hyperkalemia, patients",[1]; post-discharge group,11.3%
same,"AE hypotension, patients",[1]; post-discharge group,9.1%
same,Patients with SAEs,[1]; post-discharge group,17.7%
same,"SAE acute kidney injury, patients",[1]; post-discharge group,1.4%
same,"SAE cardiac failure, patients",[1]; post-discharge group,7.7%
same,Permanent treatment discontinuation due to SAEs,"[1]; post-discharge, N = 496",13 (2.6) n (%)
same,Permanent treatment discontinuation due to non-SAEs,"[1]; post-discharge, N = 496",7 (1.4) n (%)
same,Serious adverse event: Acute kidney injury,"[1]; post-discharge, N = 496",7 (1.4) n (%)
same,Serious adverse event: Atrial fibrillation,"[1]; post-discharge, N = 496",4 (0.8) n (%)
same,Serious adverse event: Cardiac failure(acute/chronic),"[1]; post-discharge, N = 496",38 (7.7) n (%)
same,Serious adverse event: Chronic obstructive pulmonary disease,"[1]; post-discharge, N = 496",4 (0.8) n (%)
same,Serious adverse event: Hyperkalemia,"[1]; post-discharge, N = 496",2 (0.4) n (%)
same,Serious adverse event: Hypotension,"[1]; post-discharge, N = 496",2 (0.4) n (%)
same,Serious adverse event: Non-cardiac chest pain,"[1]; post-discharge, N = 496",3 (0.6) n (%)
same,Serious adverse event: Pneumonia,"[1]; post-discharge, N = 496",3 (0.6) n (%)
same,Serious adverse event: Pulmonary edema,"[1]; post-discharge, N = 496",2 (0.4) n (%)
same,Serious adverse event: Renal failure,"[1]; post-discharge, N = 496",1 (0.2) n (%)
same,Serious adverse event: Respiratory tract infection,"[1]; post-discharge, N = 496",3 (0.6) n (%)
same,Serious adverse event: Ventricular tachycardia,"[1]; post-discharge, N = 496",0 (0.0) n (%)
same,Temporary treatment interruption due to AEs,"[1]; post-discharge, N = 496",55 (11.1) n (%)
same,Temporary treatment interruption due to SAEs,"[1]; post-discharge, N = 496",18 (3.6) n (%)
same,Temporary treatment interruption due to non-SAEs,"[1]; post-discharge, N = 496",42 (8.5) n (%)
same,Adverse event: Cardiac failure,[1]; [4],42 (8.5) n (%)
same,Adverse event: Diarrhea,[1]; [4],23 (4.6) n (%)
same,Adverse event: Dizziness,[1]; [4],21 (4.2) n (%)
same,Adverse event: Hyperkalemia,[1]; [4],56 (11.3) n (%)
same,Adverse event: Hypotension,[1]; [4],45 (9.1) n (%)
same,Adverse event: Peripheral edema,[1]; [4],24 (4.8) n (%)
same,Adverse event: Renal impairment,[1]; [4],15 (3.0) n (%)
same,Adverse event: Urinary tract infection,[1]; [4],15 (3.0) n (%)
same,Deaths,[1]; [5],10 (2.0) n (%)
same,Patients with ≥ SAE / at least one SAE,[1]; [5],88 (17.7) n (%)
same,Patients with ≥1 AE,[1]; [5],323 (65.1) n (%)
same,Permanent treatment discontinuation due to AEs,"[1]; post-discharge, N = 496, full analysis set",20 (4.0) n (%)
same,"RRR, permanent discontinuation due to AEs",[1]; pre- vs post-discharge,1.287
same,"Mortality, patients who died",[1]; pre-discharge arm,2.6%
same,"AE cardiac failure, patients",[1]; pre-discharge group,6.8%
same,"AE dizziness, patients",[1]; pre-discharge group,5.6%
same,"AE hyperkalemia, patients",[1]; pre-discharge group,11.1%
same,"AE hypotension, patients",[1]; pre-discharge group,12.3%
same,Patients with SAEs,[1]; pre-discharge group,18.9%
same,"SAE acute kidney injury, patients",[1]; pre-discharge group,1.2%
same,"SAE cardiac failure, patients",[1]; pre-discharge group,7.0%
same,Permanent treatment discontinuation due to SAEs,"[1]; pre-discharge, N = 497",15 (3.0) n (%)
same,Permanent treatment discontinuation due to non-SAEs,"[1]; pre-discharge, N = 497",8 (1.6) n (%)
same,Serious adverse event: Acute kidney injury,"[1]; pre-discharge, N = 497",6(1.2) n (%)
same,Serious adverse event: Atrial fibrillation,"[1]; pre-discharge, N = 497",3 (0.6) n (%)
same,Serious adverse event: Cardiac failure(acute/chronic),"[1]; pre-discharge, N = 497",35 (7.0) n (%)
same,Serious adverse event: Chronic obstructive pulmonary disease,"[1]; pre-discharge, N = 497",0 (0.0) n (%)
same,Serious adverse event: Hyperkalemia,"[1]; pre-discharge, N = 497",3 (0.6) n (%)
same,Serious adverse event: Hypotension,"[1]; pre-discharge, N = 497",4 (0.8) n (%)
same,Serious adverse event: Non-cardiac chest pain,"[1]; pre-discharge, N = 497",0 (0.0) n (%)
same,Serious adverse event: Pneumonia,"[1]; pre-discharge, N = 497",4 (0.8) n (%)
same,Serious adverse event: Pulmonary edema,"[1]; pre-discharge, N = 497",3 (0.6) n (%)
same,Serious adverse event: Renal failure,"[1]; pre-discharge, N = 497",3 (0.6) n (%)
same,Serious adverse event: Respiratory tract infection,"[1]; pre-discharge, N = 497",0 (0.0) n (%)
same,Serious adverse event: Ventricular tachycardia,"[1]; pre-discharge, N = 497",3 (0.6) n (%)
same,Temporary treatment interruption due to AEs,"[1]; pre-discharge, N = 497",70 (14.1) n (%)
same,Temporary treatment interruption due to SAEs,"[1]; pre-discharge, N = 497",21 (4.2) n (%)
same,Temporary treatment interruption due to non-SAEs,"[1]; pre-discharge, N = 497",54 (10.9) n (%)
same,Adverse event: Cardiac failure,[1]; [6],34 (6.8) n (%)
same,Adverse event: Diarrhea,[1]; [6],12 (2.4) n (%)
same,Adverse event: Dizziness,[1]; [6],28 (5.6) n (%)
same,Adverse event: Hyperkalemia,[1]; [6],55 (11.1) n (%)
same,Adverse event: Hypotension,[1]; [6],61(12.3) n (%)
same,Adverse event: Peripheral edema,[1]; [6],17 (3.4) n (%)
same,Adverse event: Renal impairment,[1]; [6],25 (5.0) n (%)
same,Adverse event: Urinary tract infection,[1]; [6],20 (4.0) n (%)
same,Deaths,[1]; [7],13 (2.6) n (%)
same,Patients with ≥ SAE / at least one SAE,[1]; [7],94 (18.9) n (%)
same,Patients with ≥1 AE,[1]; [7],338 (68.0) n (%)
same,Permanent treatment discontinuation due to AEs,"[1]; pre-discharge, N = 497, full analysis set",22 (4.4) n (%)
same,AE of interest: Blood creatinine increased,[1]; [8],26 (3.7) n (%)
same,AE of interest: Cardiac failure,[1]; [8],58 (8.2) n (%)
same,AE of interest: Hyperkalemia,[1]; [8],85 (12.1) n (%)
same,AE of interest: Hypotension,[1]; [8],108 (10.9) n (%)
same,AE of interest: Renal failure,[1]; [8],16 (2.3) n (%)
same,AE of interest: Renal impairment,[1]; [8],32 (4.5) n (%)
same,At least one AE,[1]; [8],478 (67.8) n (%)
same,At least one serious AE,[1]; [8],130 (18.4) n (%)
same,Death,[1]; [8],5 (0.7) n (%)
same,Treatment interruption due to AE,[1]; [8],87 (12.3) n (%)
same,Greater reduction in hsTnT,[2],16%
same,Serial urinary cGMP (in words),urinary cGMP,increased
